Patent publication US12605399B2, “Compositions for CFTR MRNA therapy” (TRANSLATE BIO, INC., priority 2020, dated 2026)

Test system: male CD1 mice
Assay: Luciferase production in the lung after intratracheal FFL mRNA-LNP
Format: in vivo, mouse
Details: for potency as determined by the average radiance detected in mouse lungs: FFL mRNA-LNP, intratracheal, about 5 hours post-dose; for performance in liposomes administered through pulmonary delivery via nebulization: mouse, in vivo
Experimental: About 150 cationic lipids were tested. (FIG. 7). Each cationic lipid was used in preparing lipid nanoparticles encapsulating mRNA encoding firefly luciferase protein (FFL mRNA) according to methods known in the art. For example, suitable methods for mRNA encapsulation include methods described in International Publication Nos. WO2016/004318 and WO 2018/089801, which is hereby incorporated by reference in its entirety. The tested lipid nanoparticles comprised a lipid component consisting of a cationic lipid, a non-cationic lipid (DOPE), a PEG-modified lipid (DMG-PEG2K), and optionally cholesterol.
Lipid nanoparticle formulations comprising FFL mRNA were administered to male CD1 mice by a single intratracheal administration via nebulization using a Microsprayer®. At approximately 5 hours post-dose, the animals were dosed with luciferin by intraperitoneal injection and all animals were imaged using an IVIS imaging system to measure luciferase production in the lung. […] Some cationic lipids remarkably had greater than 50-fold increase in pulmonary protein expression as compared to other cationic lipids.

For `CCCCC/C=C\C/C=C\CCCCCCCC(=O)OCC(COC(=O)CCCCCCC/C=C\C/C=C\CCCCC)(COC(=O)CCCCCCC/C=C\C/C=C\CCCCC)NCCS(=O)(=O)NCCN(C)C` [GL-TES-SA-DME-E18-2, 2-((2-(N-(2-(dimethylamino)ethyl)sulfamoyl)ethyl)amino)-2-((((9Z,12Z)-octadeca-9,12-dienoyl)oxy)methyl)propane-1,3-diyl (9Z,9′Z,12Z,12′Z)-bis(octadeca-9,12-dienoate)], the “potency as determined by the average radiance detected in mouse lungs” value (“potency as determined” for short) was “particularly high potency” and the “performance in liposomes administered through pulmonary delivery via nebulization” value (shortened to “performance”) was “performed particularly well”.

`CCCCCCCCOC(=O)CC(CC(=O)OCCCCCCCC)(OC(=O)CCN(C)C)C(=O)OCCCCCCCC` [TL1-01D-DMA, trioctyl 2-((3-(dimethylamino)propanoyl)oxy)propane-1,2,3-tricarboxylate] was tested, and the “potency as determined” value was “particularly high potency” and the “performance” value was “performed particularly well”.

`CCCCCCCCC(O)CN(CCCC(=O)OCCN1CC(C)N(CCOC(=O)CCCN(CC(O)CCCCCCCC)CC(O)CCCCCCCC)CC1C)CC(O)CCCCCCCC` (stereo not shown) [HEP-E3-E10] was tested, and the “potency as determined” value was “particularly high potency” and the “performance” value was “performed particularly well”.

In the case of `CCCCCCCCC(O)CN(CCCCC(=O)OCCN1CC(C)N(CCOC(=O)CCCCN(CC(O)CCCCCCCC)CC(O)CCCCCCCC)CC1C)CC(O)CCCCCCCC` (stereo not shown) [HEP-E4-E10], the “potency as determined” value is reported as “particularly high potency” and the “performance” value is reported as “performed particularly well”.

With `CC(C)CCCC(C)C1CCC2C3CC=C4CC(OC(=O)CCc5cnc[nH]5)CCC4(C)C3CCC12C` (stereo not shown) [ICE, imidazole cholesterol ester, reference compound] the “historical radiance/expression of pulmonary-delivered FFL mRNA LNP” value (mice, nebulized FFL mRNA in LNP with this cationic lipid) was “around 10^4 p/s/cm^2sr”.

For `CCCCCCCCCCCCCCOC(=O)CC(CC(=O)OCCCCCCCCCCCCCC)(OC(=O)CCN(C)C)C(=O)OCCCCCCCCCCCCCC` [TL1-04D-DMA], the “potency as determined” value was “particularly high potency” and the “performance” value was “performed particularly well”.

With `CCCCC/C=C\C/C=C\CCCCCCCC(=O)OCC(COC(=O)CCCCCCC/C=C\C/C=C\CCCCC)(COC(=O)CCCCCCC/C=C\C/C=C\CCCCC)NCCS(=O)(=O)NCCCN(C)C` [GL-TES-SA-DMP-E18-2] the “potency as determined” value was “particularly high potency” and the “performance” value was “performed particularly well”.
